Assay results published in patent publication US10849906B2, “Use of Akt2 in diagnosis and treatment of tumor” (priority 2015, dated 2020).

Columns and labels:
CCRF-CEM cells [1] = assay: Apoptosis by Annexin V-FITC PI double staining (flow cytometry), CCRF-CEM; format: cell-based, human; settings: compared to dexamethasone alone; FIG. 2A: Akt inhibitor 1 μM, dexamethasone 1 μM, LY294002 30 μM; FIG. 2G, 2J, 2K
Procedure: (§1) The control group was not added with any reagents. All experiments were performed in triplicate.
(§2) Apoptosis was detected by Annexin V-FITC PI double staining method (flow cytometry kit (FITC, PI double staining), Sangon Biotech (Shanghai) Co., Ltd.)), and the collected cells were washed once with phosphate buffered saline (PBS) (135 mM NaCl, 2.7 mM KCl, 1.5 mM KH2PO4 and 8 mM K2HPO4, pH 7.2); the 4× binding buffer was diluted to a 1× binding buffer with deionized water, then the cells were resuspended with 195 ul of the 1× binding buffer at a cell density of 2-5×10^5/ml; 5 μl of Annexin V-FITC was added to the 195 μl of the cell resuspension and mixed, and incubated in dark at room temperature for 10 minutes; the cells were washed once with 200 μl of the 1× binding buffer, and then resuspended in 190 μl of the 1× binding buffer; 10 μl of propidium iodide (20 μg/ml) was added. A flow cytometry device (Beckman company) was used for detection, and the rate of apoptosis was analyzed using Summit software.
(§3) The cells were cultured in RPMI 1640 complete medium (Gibco company) containing 10% fetal bovine serum (FBS, Gibco company) in an incubator (Thermo company) at 5% CO2 and 37° C. until reaching logarithmic growth phase, then different concentrations of inhibitors and/or dexamethasone/ethanol/DMSO were added to the culture medium, followed by further culturing (for addition of dexamethasone/ethanol/DMSO, for 48 hours, and for addition of inhibitor, for 24 hours), and apoptosis was detected by Annexin V-FITC PI double staining and proteins were detected by Western blot, as described in Example 1.
(§4) As described in Example 3, the cells were cultured in RPMI 1640 complete medium containing 10% fetal bovine serum under 5% CO2 and 37° C. until reaching logarithmic growth phase, and then dexamethasone and different concentrations of Akt inhibitor were added to the culture medium, followed by further culture (for addition of dexamethasone/DMSO, for 48 hours, and for addition of the inhibitor, for 24 hours), the apoptosis was detected by Annexin V-FITC PI double staining method and proteins were detected by Western blot as described in Example 1 as well as the cell viability was detected by CCK-8 method.

[2] = system: Akt/FoxO3a/Bim signaling pathway in CCRF-CEM cells; assay: Western blot of Akt/FoxO3a/Bim signaling pathway proteins in CCRF-CEM cells; format: cell-based, human; settings: for expression of phosphorylated FoxO3a, inhibitor plus dexamethasone: 2I
Procedure: as §1
Protein detection by Western blot: in the examples of the present invention, Akt antibody (rabbit derived), phosphorylated Akt antibody (rabbit derived), FoxO3a antibody (rabbit derived), phosphorylated FoxO3a antibody (rabbit derived) and GAPDH antibody (rabbit derived) and secondary antibodies were all purchased from CST company. The cells were collected in a centrifuge tube and centrifuged at 1000 rpm, the supernatant was discarded and the cells were washed twice with PBS pre-cold at 4° C.; cell lysis buffer (150 mM NaCl, 1% NP-40, 0.1% SDS, 2 μg/ml Aprotinin, 2 μg/ml Leupeptin, 1 mM PMSF, 1.5 mM EDTA, 1 mM sodium vanadate) was added and the cells were lysed on ice for 40 minutes, the cell lysate was centrifuged at 20000 rpm, 4° C. for 15 minutes, and the supernatant was collected; a protein loading buffer for sodium dodecyl sulfate polyacrylamide (SDS-PAGE) gel electrophoresis (1.25 mL 1MTris-HCl (pH6.8), 0.5 g SDS, 25 mg BPB, 2.5 mL glycerol, 5 mL deionized water) was added, followed by boiling for 5 minutes to denature proteins; the loading buffer containing denatured proteins was applied to 10% SDS-PAGE for electrophoresis at 120 V, and then transferred to a PVDF membrane (Sangon Biotech (Shanghai) Co., Ltd.) at 130 V for 1.5 hours; after the membrane transfer was completed, the PVDF membrane was immediately rinsed with a Western washing solution (150 mmol/L NaCl, 50 mmol/L Tris-HCl (pH 7.5)) for 1-2 minutes; added with 5% non-fat milk powder (Shanghai Biotechnology Co., Ltd.), agitated gently and then blocked at room temperature for 60 minutes; a primary antibody diluted appropriately with 5% non-fat milk powder was added, and incubated overnight at room temperature with gentle agitating; the primary antibody was recovered and the membrane was washed three times with the washing solution for 5-10 minutes each; a horseradish peroxidase-labeled secondary antibody diluted appropriately with the Western washing solution was added, and incubated at room temperature for 1 hour with gentle agitating; the secondary antibody was recovered and the membrane was washed three times with the Western washing solution for 5-10 minutes each. An appropriate amount of developing solution (DAB 4 mg, 30% hydrogen peroxide 15 μL, 0.01 M Tris-Cl (pH 7.5) 5 mL) was dropped on the PVDF membrane, the image was detected using a bioluminescence image colorimeter and a gel imaging system (Thermo company), and the quantitative analysis of bands was performed using Image Lab software.
as §3
Methods: CCRF-CEM cells were cultured in RPMI 1640 complete medium (Gibco company) containing 10% fetal bovine serum (FBS, Gibco company) in an incubator (Thermo company) at 5% CO2 and 37° C. until reaching logarithmic growth phase, then DMSO, dexamethasone and different inhibitors (DMSO: 0.1%, dexamethasone: 0.1 μM, inhibitors: 0.8 μM) were added to the culture medium, and further cultured (for addition of dexamethasone or DMSO, for 48 hours, and for addition of inhibitors, for 24 hours), and the proteins were detected by Western blot, as described in Example 1.

[3] = system: Akt/FoxO3a/Bim proteins in L-02 cells; assay: Western blot of Akt/FoxO3a/Bim proteins in L-02 cells; format: cell-based, human; settings: pretreated with inhibitor 0.8 μM; FIG. 6B
Procedure: Protein detection by Western blot: in the examples of the present invention, Akt antibody (rabbit derived), phosphorylated Akt antibody (rabbit derived), FoxO3a antibody (rabbit derived), phosphorylated FoxO3a antibody (rabbit derived) and GAPDH antibody (rabbit derived) and secondary antibodies were all purchased from CST company. […] An appropriate amount of developing solution (DAB 4 mg, 30% hydrogen peroxide 15 μL, 0.01 M Tris-Cl (pH 7.5) 5 mL) was dropped on the PVDF membrane, the image was detected using a bioluminescence image colorimeter and a gel imaging system (Thermo company), and the quantitative analysis of bands was performed using Image Lab software.

[4] = system: L-02 human-derived healthy liver cell line; assay: CCK-8 viability of healthy liver cells L-02; settings: FIG. 6A; for damage to liver cells: DEX 0.1 μM, inhibitors 0.8 μM
[5] = Toxicity in tumor-bearing nude mice (peripheral blood test, organ pathology)
Daudi cells [6] = assay: Apoptosis by Annexin V-FITC PI double staining, Daudi; format: cell-based, human; settings: compared to the dexamethasone group; FIG. 2K, 4L
Procedure: as §2
as §3, with “1. […]” for “1.”

Jurkat cells [7] = assay: Apoptosis by Annexin V-FITC PI double staining, Jurkat; format: cell-based, human; settings: compared to the only/single dexamethasone group; FIG. 2F, 4J
Procedure: as §2, §3, §4
The transfected cells were selected and passaged for 3 to 5 passages after resuscitation, with Interferin™ as transfection reagent, and the transfection procedure was performed in accordance with the instruction of the transfection reagent. In short, the cells of logarithmic growth phase were plated at 2×10^5/well, the cells were replaced with fresh complete medium (free of antibiotics) during transfection, siRNA was diluted with Opti-MEM and added with an appropriate amount of […]in™ and mixed, incubated at room temperature for 10 minutes prior to being added dropwise to the cells, and the cells were harvested at appropriate time. The cells were transfected with green fluorescein-labeled siRNA (FAM-siRNA) (siRNA at a final concentration of 20 μM, 1.25 μl/well), and the transfection efficiency was observed using a fluorescence microscope 24 hours later. The dexamethasone group was added 24 hours after transfection, followed by culture for further 24 hours, and then the cells were collected for observation; and the equal amount of anhydrous ethanol was added to the control group.

Daudi cells [8] = assay: Cell viability by CCK-8 and combination index, Daudi; format: cell-based, human
Procedure: as §4
(§5) The inhibitory effect of two drugs (dexamethasone and an inhibitor) alone and in combination on various lymphocyte lines was observed by CCK-8 method (CCK-8 kit), and then the half-inhibitory concentration of each drug was calculated using the median effect equation, and the combination index (CI) of the two drugs used in combination was calculated using CompuSyn software.
(1) the lymphocytes of logarithmic growth phase were taken and made to a cell suspension of 5×10^4/mL, a blank control group (5 wells), a dexamethasone group (3 wells for each concentration, triplicates), a single inhibitor group (3 wells for each concentration, triplicates), a dexamethasone plus inhibitor group (3 wells for each combined concentration, triplicates) were prepared, 180 μL of the suspension was seeded to each well of a 96-well plate, and incubated for 24 hours in an incubator at 5% CO2 and 37° C.
Based on the drug resistance of cells, the ratio of two drugs was fixed. The dexamethasone group was cultured for 48 hours while the inhibitor group was cultured for 24 hours.
(3) 10 μl of CCK-8 was added to each well, and cultured for 2 hours, and the optical density (OD) was measured at 450 nm using an automatic microplate reader, and the proliferation inhibition rate of the drug on cell was calculated.
(4) the proliferation inhibition rate was calculated according to the following equation: cell proliferation inhibition rate=(1-average OD value in the test group/average OD value in the control group)×100%, and the effect of interaction between the two drugs was analyzed by Chou-Talalay combination index method.

Jurkat cells [9] = assay: Cell viability by CCK-8 and combination index, Jurkat; format: cell-based; settings: Homo sapiens, dexamethasone alone (original), read-out: concentration of dexamethasone at which 50% viability of Jurkat cells (IC50 value) was inhibited
Procedure: as §4
as §5, with “software. […]” for “software.”
(§6) (3) 10 μl of CCK-8 was added to each well, and cultured for 2 hours, and the optical density (OD) was measured at 450 nm using an automatic microplate reader, and the proliferation inhibition rate of the drug on cell was calculated. […]

CCRF-CEM cells [10] = assay: Cell viability by CCK-8 and combination index, CCRF-CEM; format: cell-based; settings: Homo sapiens, dexamethasone alone (original), read-out: concentration of dexamethasone at which 50% viability of CCRF-CEM cells (IC50 value) was inhibited
Procedure: as §4
as §5, with “software. […]” for “software.”
as §6

CEM-DR cells = assay: Cell viability by CCK-8 and combination index, CEM-DR; format: cell-based; settings: Homo sapiens; dexamethasone alone (original); read-out: concentration of dexamethasone at which 50% viability of CEM-DR cells (IC50 value) was inhibited
Procedure: as §4
as §5, with “software. […]” for “software.”
as §6

[11] = compared to the only dexamethasone group, FIG. 2B, 2H
[12] = CCRF-CEM, inhibitors 0.8 μM, FIG. 5A

## OCC1OC(O)CC(O)C1O (stereo not shown) [2-DG]
CCRF-CEM cells [1]
  apoptosis of CCRF-CEM cells induced by dexamethasone, inhibitor plus dexamethasone: significantly increased
[2]; compared to dexamethasone alone, FIG. 2H
  total FoxO3a expression, inhibitor plus dexamethasone: increased
[2]; [11]
  expression of pro-apoptosis factor Bim, inhibitor plus dexamethasone: significantly up-regulated
  expression of phosphorylated FoxO3a, inhibitor plus dexamethasone: decreased

## C[C@H](NC(=O)Cc1cc(F)cc(F)c1)C(=O)N[C@H](C(=O)OC(C)(C)C)c1ccccc1 [dapt]
CCRF-CEM cells [1]
  apoptosis of CCRF-CEM cells induced by dexamethasone, inhibitor plus dexamethasone: significantly increased
[2]; [11]
  expression of phosphorylated FoxO3a, inhibitor plus dexamethasone: significantly reduced

## Cc1[nH]nc2ccc(-c3cncc(OC[C@@H](N)Cc4ccccc4)c3)cc12 [A-674563]
[3]
  expressions of p-Akt1 and p-Akt2 in L-02 cells: correspondingly increased
[4]
  damage to liver cells: most serious damage
  recovery of liver cell activity: did not recover within 48-hour
[5]; 7-day administration, FIG. 8A, 8B
  liver pathology (HE staining): did not cause morphological changes of the liver tissues
[5]; compared to the NC group, FIG. 6I
  level of TBIL: significantly increased
[5]; compared to the normal saline group (NC), FIG. 3F, 6H
  level of peripheral blood AST: significantly increased
Daudi cells [6]
  apoptosis of Daudi cells, inhibitor in combination with dexamethasone: significantly increase
Jurkat cells [7]
  apoptosis of Jurkat cells, inhibitor in combination with dexamethasone: significantly increase
[2]; [12]
  expression of p-Akt1: effectively inhibited
  expression of p-Akt2: compensatory increase
Daudi cells [8]; B lymphoma cells, as shown in Table 1
  effect of inhibitor in combination with dexamethasone in B lymphoma cells (in words): low degree of synergistic effect

## C[C@@H]1C[C@H]2[C@@H]3CCC4=CC(=O)C=C[C@]4(C)[C@@]3(F)[C@@H](O)C[C@]2(C)[C@@]1(O)C(=O)CO [dexamethasone]
Jurkat cells [9]
  IC50: 224 µM
CCRF-CEM cells [10]
  IC50: 0.3 µM
CEM-DR cells
  IC50: 138 µM
[4]
  damage to liver cells: no damage to liver cells
[5]; compared to the NC group, FIG. 6J
  peripheral blood leukocyte level: no significant difference
[5]; compared to the NC group, FIG. 6K
  level of peripheral blood RBC: significantly increased
[5]; compared to the NC group, FIG. 6L
  level of peripheral blood HGB: significantly increased
[5]; compared to the NC group, FIG. 6M
  peripheral blood platelet level: no significant difference
[5]; compared to the NC group, FIG. 6N
  blood glucose level: no significant difference
[5]; compared to the NC group, FIG. 6O
  peripheral blood creatinine level: no significant difference
Daudi cells [8]; Homo sapiens, Daudi, dexamethasone alone (original), read-out: concentration of dexamethasone at which 50% viability of Daudi cells (IC50 value) was inhibited
  IC50: 225 µM
